The nature of experiment [1]: fluconazole-exposed Candida albicans growth modulators – fluorescence, retest, confirmation (AID 2467). In kind it is functional, cell-based.
Experiment [2] addresses T1, Mitochondrial peptide methionine sulfoxide reductase (Bos taurus, UniProt P54149).
T1 sequence (P54149 whole entry): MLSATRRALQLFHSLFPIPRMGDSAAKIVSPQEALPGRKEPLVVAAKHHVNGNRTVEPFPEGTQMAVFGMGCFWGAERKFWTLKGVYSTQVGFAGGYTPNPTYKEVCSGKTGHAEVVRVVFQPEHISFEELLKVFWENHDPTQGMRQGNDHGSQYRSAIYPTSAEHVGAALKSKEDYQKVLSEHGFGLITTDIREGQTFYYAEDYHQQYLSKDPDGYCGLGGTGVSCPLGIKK
The experiment is described as follows: Absorbance-based biochemical high throughput dose response assay for activators of Methionine sulfoxide reductase A (MsrA). Format: functional.

Experiment [3] in a line: NIH-3T3 fibroblast cytotoxicity, dose response, cytotoxicity control, cell-based, fluorescence, Alamar Blue, secondary assay (AID 2327).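 Note: NIH-3T3 mouse fibroblasts cultured with fluconazole at 8 µg/mL.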 Format: functional. For orientation: Alamar Blue is a resazurin reagent that responds to reducing activity.
Experiment [4] has as its target T2, High affinity choline transporter 1 (Homo sapiens, UniProt Q9GZV3).
T2 sequence (Q9GZV3 whole entry): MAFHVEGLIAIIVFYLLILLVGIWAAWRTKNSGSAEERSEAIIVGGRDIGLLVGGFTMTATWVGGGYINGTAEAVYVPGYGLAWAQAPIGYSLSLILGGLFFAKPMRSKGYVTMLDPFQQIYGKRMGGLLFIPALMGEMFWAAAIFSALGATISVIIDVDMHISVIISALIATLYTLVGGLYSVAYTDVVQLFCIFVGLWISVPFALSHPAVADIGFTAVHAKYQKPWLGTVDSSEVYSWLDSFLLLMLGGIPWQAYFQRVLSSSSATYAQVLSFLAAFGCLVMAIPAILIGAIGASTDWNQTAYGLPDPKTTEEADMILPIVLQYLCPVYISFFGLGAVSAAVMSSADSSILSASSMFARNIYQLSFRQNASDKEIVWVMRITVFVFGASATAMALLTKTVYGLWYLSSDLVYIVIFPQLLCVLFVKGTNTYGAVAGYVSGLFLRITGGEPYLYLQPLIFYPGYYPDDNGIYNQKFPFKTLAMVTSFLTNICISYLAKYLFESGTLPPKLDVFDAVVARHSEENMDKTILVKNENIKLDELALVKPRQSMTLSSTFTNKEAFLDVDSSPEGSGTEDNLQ
Briefly: human choline transporter blockers, potency – cell-based, 10-point CRC, membrane potential dye, dose response (AID 588401).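 Note: membrane potential dye fluorescence of choline-evoked depolarization via CHT.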 Format: functional.

Experiment [5] concerns the target T2, High affinity choline transporter 1. The experiment is described as follows: human choline transporter blockers, potency – cell-based, 5-point CRC, membrane potential dye, dose response (AID 504840). Format: functional.
The target of experiment [6] is T3, Probable nicotinate-nucleotide adenylyltransferase (Staphylococcus aureus (strain N315), UniProt P65502). Format: functional, Staphylococcus aureus subsp. aureus N315. Particulars: read-out: IC50_Mean.
Experiment [7] concerns the target Induced myeloid leukemia cell differentiation protein Mcl-1 (Homo sapiens, UniProt Q07820). In kind it is functional.
Experiment [8] addresses DNA (cytosine-5)-methyltransferase 1 (Homo sapiens, UniProt P26358). The experiment is described as follows: inhibition of DNA methylation by DNMT1 – biochemical, fluorescent molecular beacon, confirmation (AID 602386). Format: functional.
The target in experiment [9] is T4, Carboxy-terminal domain RNA polymerase II polypeptide A small phosphatase 1 (Homo sapiens, UniProt Q9GZU7).
T4 sequence (Q9GZU7 whole entry): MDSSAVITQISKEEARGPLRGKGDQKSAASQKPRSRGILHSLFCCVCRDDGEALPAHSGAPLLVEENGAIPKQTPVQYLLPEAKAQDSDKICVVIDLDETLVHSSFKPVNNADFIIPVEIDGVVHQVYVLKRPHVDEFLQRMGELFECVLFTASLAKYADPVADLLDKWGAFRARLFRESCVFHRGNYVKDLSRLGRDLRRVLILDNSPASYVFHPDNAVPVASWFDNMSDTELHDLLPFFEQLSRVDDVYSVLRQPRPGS
Briefly: CTDSP1 inhibitors, concentration-response, biochemical, absorbance readout, ultra-high-throughput screen actives (AID 540297). Format: functional.

The target in experiment [10] is T3, Probable nicotinate-nucleotide adenylyltransferase. In kind it is functional, Staphylococcus aureus subsp. aureus N315.
The target of experiment [11] is Cell division cycle 7-related protein kinase (Homo sapiens, UniProt O00311). In kind it is functional.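 Note: value obtained from a kinome-wide kinase panel.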
Experiment [12] concerns the target Homeodomain-interacting protein kinase 2 (Homo sapiens, UniProt Q9H2X6). In kind it is functional.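 Note: measured within a kinome-wide kinase profiling panel, HIPK2 being one panel member.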
The target in experiment [13] is Interleukin-1 receptor-associated kinase 4 (Homo sapiens, UniProt Q9NWZ3). In kind it is functional.
The target in experiment [14] is Dual specificity protein kinase CLK4 (Homo sapiens, UniProt Q9HAZ1). Format: functional.
The target in experiment [15] is Serine/threonine-protein kinase pim-1 (Homo sapiens, UniProt P11309). Format: functional.
The target of experiment [16] is cAMP-dependent protein kinase catalytic subunit alpha (Homo sapiens, UniProt P17612). Format: functional.
For experiment [17], the target named is Glycogen synthase kinase-3 beta (Homo sapiens, UniProt P49841). Format: functional.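 Note: value comes from a broad kinome profiling panel, with GSK3B as the panel member.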
Experiment [18] is described as follows: bead-based luminescence quenchers, dual-tagged ARNT – biochemical, AlphaScreen, cherry-pick, artefact control for ARNT-TACC3 interaction inhibitor project, dose response (AID 651705).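 Note: AlphaScreen bead proximity signal that flags compounds interfering with the detection technology; potency reflects signal decrease which marks the compound as an assay artifact.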 Format: functional. (In general: Alpha assays give light when donor and acceptor beads are brought close together.)
The nature of experiment [19]: Counterscreen for antagonists of the orexin 1 receptor (OX1R; HCRTR1): Fluorescence-based cell-based high throughput dose response assay to identify antagonists of the parental CHO cell line. [Related pubchem assays (depositor defined):AID434989, AID435008, AID463079, AID485270, AID492963, AID492964, AID492965, AID493232, AID504699, AID504701]. Format: functional.
The target of experiment [20] is T5, Orexin receptor type 2 (Homo sapiens, UniProt O43614).
T5 sequence (O43614 whole entry): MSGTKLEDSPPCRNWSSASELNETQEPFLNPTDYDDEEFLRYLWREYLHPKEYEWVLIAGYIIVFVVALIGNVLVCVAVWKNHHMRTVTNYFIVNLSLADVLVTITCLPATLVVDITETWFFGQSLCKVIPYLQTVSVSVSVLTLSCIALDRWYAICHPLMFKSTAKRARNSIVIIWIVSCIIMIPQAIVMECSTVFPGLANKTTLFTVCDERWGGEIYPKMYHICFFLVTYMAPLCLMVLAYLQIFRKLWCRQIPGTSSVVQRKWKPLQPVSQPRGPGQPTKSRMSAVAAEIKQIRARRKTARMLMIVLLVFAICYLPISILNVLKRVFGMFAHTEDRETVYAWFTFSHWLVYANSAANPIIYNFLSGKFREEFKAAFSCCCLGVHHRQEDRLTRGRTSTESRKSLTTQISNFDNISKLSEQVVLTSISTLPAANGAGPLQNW
The experiment is described as follows: Counterscreen assay for antagonists of the orexin 1 receptor (OX1R; HCRTR1): Homogeneous Time Resolved Fluorescence (HTRF)-based cell-based dose response assay for antagonists of the orexin 2 receptor (OX2R; HCRTR2), run by assay provider. Format: functional. For orientation: Counterscreens check selectivity or assay interference.

Experiment [21] addresses T5, Orexin receptor type 2. The experiment is described as follows: Counterscreen assay for antagonists of the orexin 1 receptor (OX1R; HCRTR1): Fluorescence-based cell-based dose response assay for antagonists of the orexin 2 receptor (OX2R; HCRTR2), run by assay provider. In kind it is functional.
In experiment [22] the test system is CHO-K1. The experiment is described as follows: Counterscreen for antagonists of the orexin 1 receptor (OX1R; HCRTR1): Homogeneous time resolved fluorescence (HTRF)-based cell-based dose response assay to identify antagonists of the parental CHO-K1 cell line. [Related pubchem assays (depositor defined):AID434989, AID435008, AID463079, AID485270, AID492963, AID492964, AID492965, AID493232, AID504699, AID504701]. In kind it is functional. Particulars: Cricetulus griseus.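 Note: potency for inhibition of ATP-stimulated IP1 production as antagonists.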

In experiment [23] the target is T6, Orexin/Hypocretin receptor type 1 (Homo sapiens, UniProt O43613).
T6 sequence (O43613 whole entry): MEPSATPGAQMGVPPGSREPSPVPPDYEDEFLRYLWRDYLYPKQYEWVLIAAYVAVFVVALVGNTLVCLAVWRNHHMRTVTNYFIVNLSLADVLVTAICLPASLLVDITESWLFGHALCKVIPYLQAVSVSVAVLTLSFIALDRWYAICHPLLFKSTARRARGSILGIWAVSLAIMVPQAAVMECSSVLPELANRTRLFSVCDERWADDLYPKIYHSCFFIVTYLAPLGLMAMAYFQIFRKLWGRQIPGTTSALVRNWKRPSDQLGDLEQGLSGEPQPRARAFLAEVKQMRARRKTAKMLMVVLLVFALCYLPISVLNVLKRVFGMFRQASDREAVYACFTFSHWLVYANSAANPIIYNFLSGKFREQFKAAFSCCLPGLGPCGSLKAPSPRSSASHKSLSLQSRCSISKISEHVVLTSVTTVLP
The experiment is described as follows: Fluorescence-based cell-based high throughput dose response assay for antagonists of the orexin 1 receptor (OX1R; HCRTR1). [Related pubchem assays (depositor defined):AID434989, AID435008, AID463079, AID485270, AID492963, AID492964, AID492965, AID493232, AID504717, AID504718]. In kind it is functional.

The target in experiment [24] is T6, Orexin/Hypocretin receptor type 1. The experiment is described as follows: Homogeneous Time Resolved Fluorescence (HTRF)-based cell-based high throughput dose response assay for antagonists of the orexin 1 receptor (OX1R; HCRTR1). [Related pubchem assays (depositor defined):AID434989, AID435008, AID463079, AID485270, AID492963, AID492964, AID492965, AID493232, AID504717, AID504718]. In kind it is functional.

A short description of experiment [25]: microbe, parasite or virus in culture. The settings on record: Mycobacterium tuberculosis. Format: functional.
Experiment [26] addresses T7, DNA repair protein RAD52 homolog (Homo sapiens, UniProt P43351).
T7 sequence (P43351 whole entry): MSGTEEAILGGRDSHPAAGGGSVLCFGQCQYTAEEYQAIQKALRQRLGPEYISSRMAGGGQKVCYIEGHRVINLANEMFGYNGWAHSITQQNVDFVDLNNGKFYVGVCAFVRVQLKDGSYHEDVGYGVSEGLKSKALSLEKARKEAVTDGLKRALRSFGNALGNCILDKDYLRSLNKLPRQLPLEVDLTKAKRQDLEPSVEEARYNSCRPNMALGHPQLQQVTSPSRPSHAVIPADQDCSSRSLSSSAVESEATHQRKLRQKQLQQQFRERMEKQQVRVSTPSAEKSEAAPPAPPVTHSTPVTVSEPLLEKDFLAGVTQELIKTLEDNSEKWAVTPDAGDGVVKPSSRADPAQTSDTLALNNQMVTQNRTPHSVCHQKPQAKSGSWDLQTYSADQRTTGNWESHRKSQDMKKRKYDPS
Format: functional, biochemical.

For experiment [27], the target named is DNA repair and recombination protein RAD54-like (Homo sapiens, UniProt Q92698). The experiment is described as follows: RAD54 Holliday junction migration blockers – biochemical, fluorescence, cherry-picked samples, dose series, confirmation (AID 651657). In kind it is functional.

Calls of active or inactive are those of the source. Bounds are passed on as bounds.
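Throughout, for IC50 Mean: confirmatory dose-response retesting of NadD inhibitor hits first found in an ultra-high-throughput screen.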

T3 sequence (P65502 whole entry): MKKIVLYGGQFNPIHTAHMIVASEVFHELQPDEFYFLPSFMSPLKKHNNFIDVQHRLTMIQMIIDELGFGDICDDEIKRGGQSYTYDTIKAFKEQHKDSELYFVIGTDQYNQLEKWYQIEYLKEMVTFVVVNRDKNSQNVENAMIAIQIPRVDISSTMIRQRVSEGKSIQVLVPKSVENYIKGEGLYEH
Serine/threonine-protein kinase pim-1, sequence (P11309 whole entry): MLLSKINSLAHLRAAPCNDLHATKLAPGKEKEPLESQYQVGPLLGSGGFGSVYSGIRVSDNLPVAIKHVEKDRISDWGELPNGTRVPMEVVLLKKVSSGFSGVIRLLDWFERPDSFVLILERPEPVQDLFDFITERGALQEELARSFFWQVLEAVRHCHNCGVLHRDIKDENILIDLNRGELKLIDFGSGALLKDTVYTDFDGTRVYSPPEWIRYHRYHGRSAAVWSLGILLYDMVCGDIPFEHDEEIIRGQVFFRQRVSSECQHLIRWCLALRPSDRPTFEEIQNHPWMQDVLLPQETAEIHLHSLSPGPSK
Induced myeloid leukemia cell differentiation protein Mcl-1, sequence (Q07820 whole entry): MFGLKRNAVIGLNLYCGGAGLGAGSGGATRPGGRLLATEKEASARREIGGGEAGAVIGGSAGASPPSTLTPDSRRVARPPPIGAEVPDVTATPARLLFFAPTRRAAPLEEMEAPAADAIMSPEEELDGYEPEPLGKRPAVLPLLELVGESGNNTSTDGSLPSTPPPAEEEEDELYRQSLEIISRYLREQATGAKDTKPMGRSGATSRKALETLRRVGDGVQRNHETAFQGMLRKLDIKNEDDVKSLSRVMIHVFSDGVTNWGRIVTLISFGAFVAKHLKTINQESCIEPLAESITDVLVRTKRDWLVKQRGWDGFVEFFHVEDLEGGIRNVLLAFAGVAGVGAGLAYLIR
DNA repair and recombination protein RAD54-like, sequence (Q92698 whole entry): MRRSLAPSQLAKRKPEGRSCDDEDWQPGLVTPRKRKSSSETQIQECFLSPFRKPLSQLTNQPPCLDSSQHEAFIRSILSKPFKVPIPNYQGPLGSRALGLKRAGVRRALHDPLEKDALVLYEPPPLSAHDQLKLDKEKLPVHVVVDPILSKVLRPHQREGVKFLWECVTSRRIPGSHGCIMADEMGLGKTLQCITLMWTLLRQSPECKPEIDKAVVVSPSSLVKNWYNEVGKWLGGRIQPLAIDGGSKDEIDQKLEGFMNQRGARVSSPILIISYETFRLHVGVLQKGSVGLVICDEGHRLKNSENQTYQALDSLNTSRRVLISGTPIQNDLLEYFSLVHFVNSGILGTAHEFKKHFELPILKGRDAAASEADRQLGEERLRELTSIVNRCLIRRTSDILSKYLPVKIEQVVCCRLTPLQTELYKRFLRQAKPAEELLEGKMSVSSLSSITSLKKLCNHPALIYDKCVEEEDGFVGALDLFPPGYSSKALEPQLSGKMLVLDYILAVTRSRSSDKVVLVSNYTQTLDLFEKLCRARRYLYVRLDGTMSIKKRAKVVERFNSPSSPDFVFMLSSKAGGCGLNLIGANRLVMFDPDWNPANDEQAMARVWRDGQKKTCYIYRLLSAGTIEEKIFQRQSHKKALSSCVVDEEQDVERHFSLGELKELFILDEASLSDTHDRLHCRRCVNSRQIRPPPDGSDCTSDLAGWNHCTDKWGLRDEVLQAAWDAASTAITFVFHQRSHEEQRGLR
Interleukin-1 receptor-associated kinase 4, sequence (Q9NWZ3 whole entry): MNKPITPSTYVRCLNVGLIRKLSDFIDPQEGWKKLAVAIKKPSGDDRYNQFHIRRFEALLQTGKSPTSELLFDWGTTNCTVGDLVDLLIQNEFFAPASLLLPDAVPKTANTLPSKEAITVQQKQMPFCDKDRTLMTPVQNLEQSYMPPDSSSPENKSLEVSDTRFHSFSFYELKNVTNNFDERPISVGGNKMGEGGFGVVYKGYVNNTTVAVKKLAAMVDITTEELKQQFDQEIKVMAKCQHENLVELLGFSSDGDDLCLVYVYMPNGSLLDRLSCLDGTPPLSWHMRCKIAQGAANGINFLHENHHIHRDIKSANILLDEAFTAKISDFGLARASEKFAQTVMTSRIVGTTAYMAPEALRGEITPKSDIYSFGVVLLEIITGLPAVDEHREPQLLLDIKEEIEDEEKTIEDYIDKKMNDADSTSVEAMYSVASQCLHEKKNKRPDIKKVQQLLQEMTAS
Homeodomain-interacting protein kinase 2, sequence (Q9H2X6 whole entry): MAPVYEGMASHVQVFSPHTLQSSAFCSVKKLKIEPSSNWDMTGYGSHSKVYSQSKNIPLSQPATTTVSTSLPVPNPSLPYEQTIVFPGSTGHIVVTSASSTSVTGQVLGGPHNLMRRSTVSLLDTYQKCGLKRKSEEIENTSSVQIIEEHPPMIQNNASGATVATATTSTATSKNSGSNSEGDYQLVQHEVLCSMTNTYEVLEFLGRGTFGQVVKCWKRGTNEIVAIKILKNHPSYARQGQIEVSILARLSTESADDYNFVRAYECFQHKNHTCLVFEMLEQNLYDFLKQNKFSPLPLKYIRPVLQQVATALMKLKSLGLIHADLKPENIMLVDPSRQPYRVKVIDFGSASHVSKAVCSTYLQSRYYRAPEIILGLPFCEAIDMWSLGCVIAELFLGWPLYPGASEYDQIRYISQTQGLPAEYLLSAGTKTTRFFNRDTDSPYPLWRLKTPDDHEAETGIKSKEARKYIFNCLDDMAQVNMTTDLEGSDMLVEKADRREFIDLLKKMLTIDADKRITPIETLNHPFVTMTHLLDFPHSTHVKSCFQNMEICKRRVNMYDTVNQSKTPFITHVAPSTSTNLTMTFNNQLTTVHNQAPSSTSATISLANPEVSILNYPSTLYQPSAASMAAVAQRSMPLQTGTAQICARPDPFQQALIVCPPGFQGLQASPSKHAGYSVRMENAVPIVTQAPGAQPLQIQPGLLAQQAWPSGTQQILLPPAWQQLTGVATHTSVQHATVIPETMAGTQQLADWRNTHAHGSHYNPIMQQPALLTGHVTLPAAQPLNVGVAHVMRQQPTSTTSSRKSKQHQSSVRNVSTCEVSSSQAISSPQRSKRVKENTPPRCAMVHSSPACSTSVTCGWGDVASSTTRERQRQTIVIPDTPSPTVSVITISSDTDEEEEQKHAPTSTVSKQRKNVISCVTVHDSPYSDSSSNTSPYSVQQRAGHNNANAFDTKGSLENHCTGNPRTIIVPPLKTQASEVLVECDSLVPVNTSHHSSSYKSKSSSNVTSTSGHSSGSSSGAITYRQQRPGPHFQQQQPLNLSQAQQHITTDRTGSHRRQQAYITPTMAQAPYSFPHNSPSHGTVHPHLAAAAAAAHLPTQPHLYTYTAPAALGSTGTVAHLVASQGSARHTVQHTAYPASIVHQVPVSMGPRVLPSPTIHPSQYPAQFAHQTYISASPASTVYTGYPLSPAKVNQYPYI
DNA (cytosine-5)-methyltransferase 1, sequence (P26358 whole entry, the tested form may be a part): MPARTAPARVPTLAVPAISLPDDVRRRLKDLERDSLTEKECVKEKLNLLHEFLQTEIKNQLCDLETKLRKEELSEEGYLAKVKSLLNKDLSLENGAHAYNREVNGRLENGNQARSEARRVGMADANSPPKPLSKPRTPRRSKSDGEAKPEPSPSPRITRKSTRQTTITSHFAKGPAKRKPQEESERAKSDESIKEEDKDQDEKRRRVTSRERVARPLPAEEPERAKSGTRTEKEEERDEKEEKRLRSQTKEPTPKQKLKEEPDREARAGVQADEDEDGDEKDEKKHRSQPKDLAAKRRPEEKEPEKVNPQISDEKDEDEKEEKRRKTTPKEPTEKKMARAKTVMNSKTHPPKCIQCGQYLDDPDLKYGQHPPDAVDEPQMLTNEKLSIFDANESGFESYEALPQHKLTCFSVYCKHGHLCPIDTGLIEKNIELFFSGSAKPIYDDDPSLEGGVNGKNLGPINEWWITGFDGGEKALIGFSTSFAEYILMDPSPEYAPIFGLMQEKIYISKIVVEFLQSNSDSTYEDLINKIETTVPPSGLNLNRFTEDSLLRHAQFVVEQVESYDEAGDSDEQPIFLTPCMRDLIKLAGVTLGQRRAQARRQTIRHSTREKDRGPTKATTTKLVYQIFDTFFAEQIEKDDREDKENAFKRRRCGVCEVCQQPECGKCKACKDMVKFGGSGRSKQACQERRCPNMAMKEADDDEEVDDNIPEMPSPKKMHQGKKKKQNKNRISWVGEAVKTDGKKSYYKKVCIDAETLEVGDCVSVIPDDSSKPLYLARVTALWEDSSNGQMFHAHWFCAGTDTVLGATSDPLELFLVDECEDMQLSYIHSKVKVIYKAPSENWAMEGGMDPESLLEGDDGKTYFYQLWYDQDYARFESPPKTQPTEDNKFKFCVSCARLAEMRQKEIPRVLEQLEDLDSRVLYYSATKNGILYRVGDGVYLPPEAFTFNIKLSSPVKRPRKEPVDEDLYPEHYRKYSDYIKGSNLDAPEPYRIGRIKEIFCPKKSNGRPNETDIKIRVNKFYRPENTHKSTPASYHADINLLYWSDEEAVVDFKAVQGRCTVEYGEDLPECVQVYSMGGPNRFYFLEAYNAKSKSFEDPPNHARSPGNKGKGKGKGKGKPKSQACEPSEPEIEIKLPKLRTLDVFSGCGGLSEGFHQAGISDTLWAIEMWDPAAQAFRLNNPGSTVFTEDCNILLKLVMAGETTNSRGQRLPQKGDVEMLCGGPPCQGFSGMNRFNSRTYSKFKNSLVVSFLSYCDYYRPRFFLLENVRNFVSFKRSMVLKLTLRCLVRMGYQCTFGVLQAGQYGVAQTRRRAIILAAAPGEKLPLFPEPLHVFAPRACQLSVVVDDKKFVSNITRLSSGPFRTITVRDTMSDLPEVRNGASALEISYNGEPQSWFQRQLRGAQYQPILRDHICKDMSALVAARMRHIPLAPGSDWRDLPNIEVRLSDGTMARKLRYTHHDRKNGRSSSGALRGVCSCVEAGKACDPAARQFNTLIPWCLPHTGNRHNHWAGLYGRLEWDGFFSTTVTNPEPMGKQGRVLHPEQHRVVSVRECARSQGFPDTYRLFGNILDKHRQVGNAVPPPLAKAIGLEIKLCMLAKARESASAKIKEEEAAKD

As to `Cc1ccc(C(=O)NC(=S)NNC(=O)CC#N)cc1`, the EC50 is > 38 µM (not active) in [1], > 104 µM (inactive) in experiment [2] and > 150 µM (inconclusive) in [3].

Regarding `Cc1ccc(NC(=O)c2ccccc2NS(=O)(=O)c2ccc(Cl)s2)cc1S(=O)(=O)N1CCOCC1`, the IC50 in [4] was 7.23 µM (active); in experiment [5], 9.12 µM (active).

For the molecule `Cn1c(N)c(C(=O)COC(=O)c2cc(-c3ccco3)nc3ccccc23)c(=O)n(C)c1=O`, the IC50 in [6] is 15.9 µM (active); in [7], 2.97 µM (active); in experiment [8], 5.78 µM (active); in experiment [9], 2.52 µM (active); in experiment [10] it was 6.76 µM (active).

Consider `CC(C)(O)CNc1cc(-c2c[nH]c3ncccc23)cc(Cl)n1`, for which the inhibition constant (Ki) in [11] was 0.002 µM (active); in experiment [12], 0.126 µM (active); in [13], 2.51 µM (active); in experiment [14], 0.00501 µM (active); in [15], 1 µM (active); in experiment [16] it was 0.316 µM (active). For the same molecule, in experiment [17], the Ki was 0.316 µM (active).

As for `COCC(C)N1CCC(Oc2cccc(C(=O)NCCc3ccccc3)c2)CC1` (stereo not drawn), the IC50 was 4.22 µM (active) in [4] and 7.46 µM (active) in [5].

`CS(=O)(=O)c1cccc(-c2nnc(NC(=O)c3ccc(S(=O)(=O)N4CCCC4)cc3)o2)c1`: the AC50 in [18] is 113 µM (active).

Take `O=C(Nc1nnc(-c2ccccc2)o1)c1cc(-c2cccs2)nc2ccccc12`: the IC50 in [6] is 19.5 µM (active); in [19], 43.7 µM (inactive); in experiment [20], > 50 µM (inactive); in experiment [21], 8.5 µM (active); in experiment [22] it was > 66.2 µM (inactive); in experiment [23], 30.4 µM (inactive). The IC50 is 6.15 µM (active) in [24] and 6.82 µM (active) in experiment [10]. Moreover, the EC50 in experiment [1] was 1.15 µM (active); in experiment [3], > 150 µM (inconclusive). Besides, the CC50 in experiment [25] is 38.7 µM (active).

In the case of `CN(C)CCCNc1c2c(nc3ccccc13)CCC2`, the AC50 is 4.86 µM (active) in experiment [26] and 20.8 µM (active) in [27].

One may read the EC50 as the concentration that produces a half-maximal response. Broadly, the Ki is a measure of affinity in units of concentration, obtained from inhibition or displacement. Broadly, the AC50 is the concentration at which the activity in the assay is half-maximal.

The values are drawn from ChEMBL document CHEMBL1201862, “PubChem BioAssay data set” (2004).
